Data: US8927280B2, “Compositions and methods for promoting the generation of definitive endoderm” (President and Fellows of Harvard College, priority 2009, dated 2015)
pEC50: −log10 of the molar value. Several values for one entry are separate records, joined by “and”; a condition that tells them apart may be missing. Identical values can stand only once. Entries after “also recorded” stand apart in the source; their conditions may differ.

Experiments:
Smad2 = experiment: Western blot analysis of Smad2 phosphorylation in ES cell lysates; format: cell-based, mouse; conditions: ES cell lysates, after 24 hrs or longer
Procedure: Cells were lysed in 1×RIPA lysis buffer in the presence of protease inhibitor mixture (Roche)/1% phosphatase inhibitor mixture (Roche). Proteins were separated by 10% Tris-Glycine SDS/PAGE (Bio-rad) under denaturing conditions and transferred to a nitrocellulose membrane. After blocking with 5% skim milk in PBS/0.1% Triton X, the membrane was incubated with primary antibodies against phospho-Smad2 (1:1000, Cell Signaling) overnight at 4° C. The membrane was then washed, incubated with anti-mouse/rabbit peroxidase-conjugated affinity-purified secondary antibody (1:1000, Cell Signaling) at room temperature for 1 h, and developed by SuperSignal chemiluminescence (Pierce).

mouse ES cells [1] = experiment: Sox17 endoderm induction in mouse ES cell monolayer cultures; format: cell-based; conditions: mouse ES cells; for pEC50: 144 h, treatment for 6 days, immunofluorescence, titration 50 nM to 5 μM, read-out: EC50 of Sox17 expression; for percentage of cells expressing Sox17 after 12 hrs treatment: analysed at day 6; for day of treatment at which endoderm induction peaks: 14 days time course; for percent of total cells expressing Sox17 at day 6 of treatment: αSox17 immunofluorescence
Procedure: Mouse ES cells were routinely cultured on irradiated CF-1 MEF feeder cells in DMEM (Gibco) media supplemented with 15% Fetal Bovine Serum (HyClone FBS, Invitrogen), 2 mM L-glutamine (L-Glu, Gibco), 1.1 mM 2-mercaptoethanol (Gibco), 1 mM nonessential amino acids (Gibco), 1× penicillin/streptomycin (P/S, Gibco) and 5×10^5 units LIF (Chemicon). Cells were passaged at the ratio of 1:6-1:12 every 2-3 days using 0.25% trypsin. To generate the starting population, mouse ES cells was cultured on MEF feeder cells until they reached 80-90% confluence. Prior to differentiation, ES cells were passaged onto gelatin coated plates for 30 min to remove MEFs. MEF depleted ES cells were seeded at 2500 cells per cm^2 on gelatinized plates. After overnight culture, cells were exposed to 25 ng/ml Wnt3a (R&D Systems)+50 ng/ml recombinant Activin A (R&D Systems) or 500 ng/ml Nodal (R&D Systems) in DMEM (Gibco) supplemented with 1×L-Glu and 0.2% FBS (Gibco) for 1 day, then Activin A or Nodal in the same media and cultured for 4-6 days to induce endoderm differentiation. For the chemical inductions, compounds IDE1 and IDE2 (provided by Stuart L. Schreiber) were added at 5 μM concentration in the differentiation media. For pancreatic progenitors induction, the cells were transferred to 50 ng/ml FGF10 (R&D Systems), 0.75 μM KAAD-cyclopamine (Calbiochem) and 2 μM RA (Sigma) or Indolactam V 330 nM (Axxora) in DMEM supplemented with 1×L-Glu, 1×PS, 1×B27 (Invitrogen) for 4 days. SHB431542 was purchased from Sigma. All stock compounds were made with either DMSO or PBS
(§1) Cells were fixed in 4% paraformaldehyde (Sigma) in PBS for 20 min at 4° C. followed by a wash with PBS. Cells were blocked with 10% donkey serum (Jackson Immunoresearch) in PBS/0.1% Triton X and incubated with primary antibodies overnight at 4° C. Secondary antibodies were incubated for 1 h at room temperature. The following antibodies and dilutions were used: goat anti-SOX17, (1:500 R&D systems); rabbit anti-PDX1 (1:200, Chemicon), rabbit anti-FoxA2 (1:500; Upstate), rabbit anti-Dab2 (1:200, Santa Cruz), rabbit anti-SPARC (1:200, Santa Cruz,), mouse anti-AFP (1:100, Sigma), anti-Gata6 (1:50, Santa Cruz Biotech), goat anti-HNF6 (1:200, Santa Cruz Biotech), rabbit anti-RFP/DsRed (1:300, MBL), rabbit anti-GFP (1:200, Molecular Probes). Secondary antibodies were: rhodamine Red-X-conjugated donkey anti-goat antibody, 1:200 (JIRL), Alexa-488-conjugated goat anti-mouse and Alexa-594-conjugated goat anti-rabbit antibodies (1:300, Molecular Probes). Nuclei were visualized by Hoechst 33342 (1:1000, Molecular Probes). Images were taken using an Olympus IX70 Microscope. For quantification images were analyzed for the frequency of SOX17+, FoxA2+ or Pdx1+ cells using Metamorph image analysis software (Molecular Devices) and at least 6 images per well were collected. Data were confirmed in four independent experiments.
Endoderm formation was monitored by Sox17 expression by either flow cytometry detection of Sox17/DsRed or immunofluorescence using anti-Sox17 antibodies. Cells labeled by antibody staining were quantified using Metamorph software ad percentage of total cell number (based on Hoechst 33342 nuclei staining). All conditions were tested in either tri- or quadruplicates.

mouse ES cells [2] = experiment: Extra-embryonic endoderm markers and morphology of induced Sox17+ cells (immunostaining); format: cell-based; conditions: for morphology of induced Sox17+ cells: immunostaining with α-Sox17 antibody; for expression of extra-embryonic endoderm (EE) markers GATA4, SPARC, AFP, Dab2 in induced Sox17+ cells: mouse ES cells, immunostaining
Procedure: as §1
During evaluation of primary hit compounds, the inventors observed that small molecules induced Sox17+ cells with two distinct morphologies. One class, including IDE1 and IDE2, induced clustered populations of Sox17+ cells, whereas other compounds led to the formation of a dispersed population of Sox17+ cells. […] Sox17 is expressed in definitive endoderm, but also in extra-embryonic endoderm, and in other germ layer derivatives at later stages of development including vascular endothelium (Kanai-Azuma et al., 2002; Matsui et al., 2006). Since the positive identification of definitive endoderm is hindered by the lack of unique markers that are expressed exclusively there, and not present in other types of endoderm, the inventors performed a negative selection and tested for markers of extra-embryonic endoderm. It was found, that the vast majority (>95%) of the dispersed Sox17+ cells (class II) also expressed extra-embryonic endoderm markers including Gata4 (Morrisey et al., 1996), SPARC (Mason et al., 1986), AFP (Dziadek, 1979) and Dab2 (Yang et al., 2002) (Suppl. FIG. 2B).

[3] = tested on: human ES cells (HUES 4 and 8); experiment: Sox17 endoderm induction in human ES cells; format: cell-based; conditions: for dose dependence of Sox17 expression: HUES 4 and 8; for percent of cells expressing Sox17: HUES cells, 4 days, IDE1 100 nM, IDE2 200 nM
Procedure: Human embryonic stem cell lines were cultured essentially as described {Cowan, 2004 #6}. Briefly, HUES4, HUES8 and HUES9 cells are routinely cultured on irradiated CF-1 MEF feeder cells in KnockOut DMEM (Gibco) supplemented with 10% KnockOut Serum Replacement (Gibco), 10% human plasma (Invitrogen), 2 mM L-glutamine (L-Glu, Gibco), 1.1 mM 2-mercaptoethanol (Gibco), 1 mM nonessential amino acids (Gibco), 1× penicillin/streptomycin (PS, Gibco) and 10 ng/ml bFGF (Invitrogen). Cells are split at the ratio of 1:10-1:12 every 4-5 days by using 1 mg/ml collagenase type IV. To induce endoderm formation, HUES cells was cultured on MEF feeder cells till 80-90% confluent, then treated with 100 ng/ml Activin A in advanced RPMI (Gibco) supplemented with 1×L-Glu and 0.2% FBS (Gibco), or with combination of 25 ng/ml Wnt3a (R&D systems)+100 ng/ml Activin A (R&D systems) or were exposed to compounds in the same media. At days 4 and 6 of culture cells were analysed for endodermal marker expression, Sox17.
as §1

| SMILES | phosphorylation of Smad2 / activation of the TGF-β pathway (Smad2) | pEC50 (mouse ES cells [1]) | percentage of cells expressing Sox17 after 12 hrs treatment (mouse ES cells [1]) [%] | day of treatment at which endoderm induction peaks (mouse ES cells [1]) [days] | percentage of cells expressing Sox17 at day 2 of treatment (mouse ES cells [1]) [%] | percent of total cells expressing Sox17 at day 6 of treatment (mouse ES cells [1]) | morphology of induced Sox17+ cells (mouse ES cells [2]) | expression of extra-embryonic endoderm (EE) markers GATA4, SPARC, AFP, Dab2 in induced Sox17+ cells (mouse ES cells [2]) | dose dependence of Sox17 expression [3] | percent of cells expressing Sox17 [3] [%] | percentage of cells expressing Sox17 at day 4 of treatment (mouse ES cells [1]; day 4) [%] |
| --- | --- | --- | --- | --- | --- | --- | --- | --- | --- | --- | --- |
| O=C(O)CCCCCC(=O)N/N=C/c1ccccc1C(=O)O [IDE1] | comparable to that induced by Activin A treatment; also recorded: activation of the TGF-β pathway | 6.90 | ~40 | 6 | 34 | 80% and 81±14% | compact, epithelial sheet | marginal expression of EE markers; also recorded: no or a negligible number of cells positive for extra-embryonic markers | dose-depended manner | 62±8.1 |  |
| O=C(O)CCCCCC(=O)NN=C1CCCC1 [IDE2] | comparable to that induced by Activin A treatment; also recorded: activation of the TGF-β pathway | 6.65 | ~40 | 6 | 32 | 72% and 76±14% | compact, epithelial sheet | only rarely detected; also recorded: no or a negligible number of cells positive for extra-embryonic markers | dose-depended manner | 57±6.7 | 42±3.83 |
